Results as given in paper PMC7298613, “Degradation of okadaic acid in seawater by UV/TiO2 photocatalysis – Proof of concept” (The Science of the Total Environment, 2020).

Target: T1, protein phosphatase-1 catalytic subunit (PP1c) (Oryctolagus cuniculus, UniProt P62139)
T1 construct: gene PPP1CA; catalytic subunit
Experiment: colorimetric pNPP phosphatase inhibition assay, absorbance at […] nm, PP1 […]
Format: biochemical

T1 sequence (P62139 2-330): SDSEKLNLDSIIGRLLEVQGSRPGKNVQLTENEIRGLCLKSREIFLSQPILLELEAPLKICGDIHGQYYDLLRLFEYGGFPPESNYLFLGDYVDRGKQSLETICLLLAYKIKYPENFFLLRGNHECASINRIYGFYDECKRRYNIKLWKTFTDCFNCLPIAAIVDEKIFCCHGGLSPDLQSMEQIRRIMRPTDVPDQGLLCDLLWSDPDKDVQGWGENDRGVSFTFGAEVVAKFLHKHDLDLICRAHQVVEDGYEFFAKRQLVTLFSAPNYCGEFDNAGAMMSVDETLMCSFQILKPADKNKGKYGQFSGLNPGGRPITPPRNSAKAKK

**Q.** `C=C1[C@@H](O)[C@@H]2O[C@]3(CC[C@H](/C=C/[C@@H](C)[C@@H]4CC(C)=C[C@@]5(O[C@H](C[C@@](C)(O)C(=O)O)CC[C@H]5O)O4)O3)CC[C@H]2O[C@@H]1[C@@H](O)C[C@H](C)[C@H]1O[C@@]2(CCCCO2)CC[C@H]1C` [OA, okadaic acid] was tested. Which IC50 did it give?
**A.** 1.18 µM
